The source made the active and inactive calls. The rule behind the calls is not given here.
Test system: CCRIS mutagenicity, Ames/micronucleus/aberration tests
Assay: CCRIS mutagenicity studies
[1] = Test System: AMES SALMONELLA TYPHIMURIUM, Strain/Indicator: TA98, Metabolic Activation: NONE, Method: STANDARD PLATE
[2] = Test System: AMES SALMONELLA TYPHIMURIUM, Strain/Indicator: TA98, Metabolic Activation: RAT, LIVER, S-9, AROCLOR 1254, Method: STANDARD PLATE
[3] = Test System: AMES SALMONELLA TYPHIMURIUM, Strain/Indicator: TA100, Metabolic Activation: NONE, Method: STANDARD PLATE
[4] = Test System: AMES SALMONELLA TYPHIMURIUM, Strain/Indicator: TA100, Metabolic Activation: RAT, LIVER, S-9, AROCLOR 1254, Method: STANDARD PLATE
[5] = Test System: AMES SALMONELLA TYPHIMURIUM, Strain/Indicator: TA102, Metabolic Activation: NONE, Method: STANDARD PLATE
[6] = Test System: AMES SALMONELLA TYPHIMURIUM, Strain/Indicator: TA102, Metabolic Activation: RAT, LIVER, S-9, AROCLOR 1254, Method: STANDARD PLATE
[7] = Test System: AMES SALMONELLA TYPHIMURIUM, Strain/Indicator: TA1535, Metabolic Activation: NONE, Method: STANDARD PLATE
[8] = Test System: AMES SALMONELLA TYPHIMURIUM, Strain/Indicator: TA1535, Metabolic Activation: RAT, LIVER, S-9, AROCLOR 1254, Method: STANDARD PLATE
[9] = Test System: AMES SALMONELLA TYPHIMURIUM, Strain/Indicator: TA98, Metabolic Activation: NONE, Method: PREINCUBATION
[10] = Test System: AMES SALMONELLA TYPHIMURIUM, Strain/Indicator: TA98, Metabolic Activation: RAT, LIVER, S-9, PCB, Method: PREINCUBATION
[11] = Test System: AMES SALMONELLA TYPHIMURIUM, Strain/Indicator: TA100, Metabolic Activation: NONE, Method: PREINCUBATION
[12] = Test System: AMES SALMONELLA TYPHIMURIUM, Strain/Indicator: TA100, Metabolic Activation: RAT, LIVER, S-9, PCB, Method: PREINCUBATION
[13] = Test System: AMES SALMONELLA TYPHIMURIUM, Strain/Indicator: TA97A, Metabolic Activation: NONE, Method: STANDARD PLATE

Measured: mutagenic call

C=CCc1ccc(O)c(O)c1
inactive: Test System: AMES SALMONELLA TYPHIMURIUM, Strain/Indicator: TA97, Metabolic Activation: NONE, Method: STANDARD PLATE inactive; negative | Test System: AMES SALMONELLA TYPHIMURIUM, Strain/Indicator: TA97, Metabolic Activation: RAT, LIVER, S-9, AROCLOR 1254, Method: STANDARD PLATE inactive; negative | [1] inactive; negative | [2] inactive; negative | [3] inactive; negative | [4] inactive; negative | [6] inactive; negative | [7] inactive; negative | [8] inactive; negative | Test System: AMES SALMONELLA TYPHIMURIUM, Strain/Indicator: TA1538, Metabolic Activation: NONE, Method: STANDARD PLATE inactive; negative | Test System: AMES SALMONELLA TYPHIMURIUM, Strain/Indicator: TA1538, Metabolic Activation: RAT, LIVER, S-9, AROCLOR 1254, Method: STANDARD PLATE inactive; negative
active: [5] active; positive

C1CCNCC1
inactive: Test System: MOUSE LYMPHOMA, Strain/Indicator: L5178Y (TK+/TK-), Metabolic Activation: RAT, LIVER, S-9, AROCLOR 1254, Method: SUSPENSION/PLATE inactive; negative
active: Test System: MOUSE LYMPHOMA, Strain/Indicator: L5178Y (TK+/TK-), Metabolic Activation: NONE, Method: SUSPENSION/PLATE active; positive

Cc1cc2ccc3cc4ccccc4c4ccc(c1)c2c34
active: Test System: AMES SALMONELLA TYPHIMURIUM, Strain/Indicator: TA100, Metabolic Activation: RAT, INTACT HEPATOCYTES, AROCLOR 1254, Method: PREINCUBATION active; positive | Test System: AMES SALMONELLA TYPHIMURIUM, Strain/Indicator: TA100, Metabolic Activation: RAT, NADPH-FORTIFIED HOMOGENIZED HEPATOCYTES, AROCLOR 1254, Method: PREINCUBATION active; positive

NC(Cn1ccnc1)C(=O)O (centres undefined)
inactive: Test System: AMES SALMONELLA TYPHIMURIUM, Strain/Indicator: TA98, Metabolic Activation: NONE inactive; negative | Test System: AMES SALMONELLA TYPHIMURIUM, Strain/Indicator: TA100, Metabolic Activation: NONE inactive; negative | Test System: AMES SALMONELLA TYPHIMURIUM, Strain/Indicator: TA102, Metabolic Activation: NONE inactive; negative | Test System: AMES SALMONELLA TYPHIMURIUM, Strain/Indicator: TA1535, Metabolic Activation: NONE inactive; negative | Test System: AMES SALMONELLA TYPHIMURIUM, Strain/Indicator: TP2428, Metabolic Activation: NONE inactive; negative
active: Test System: E. COLI, Strain/Indicator: WP2 UVRA (PKM101), Metabolic Activation: NONE active; positive

Nc1ccc2cccc3c2c1-c1ccccc1-3
inactive: Test System: AMES SALMONELLA TYPHIMURIUM, Strain/Indicator: TA1535, Metabolic Activation: RAT, LIVER, S-9, AROCLOR 1254 (4%), Method: STANDARD PLATE inactive; negative
active: Test System: AMES SALMONELLA TYPHIMURIUM, Strain/Indicator: TA98, Metabolic Activation: RAT, LIVER, S-9, AROCLOR 1254 (2 OR 4%), Method: STANDARD PLATE active; positive | Test System: AMES SALMONELLA TYPHIMURIUM, Strain/Indicator: TA100, Metabolic Activation: RAT, LIVER, S-9, AROCLOR 1254 (4%), Method: STANDARD PLATE active; positive | Test System: AMES SALMONELLA TYPHIMURIUM, Strain/Indicator: TA1537, Metabolic Activation: RAT, LIVER, S-9, AROCLOR 1254 (4%), Method: STANDARD PLATE active; positive

CN1CCOCC1
inactive: [9] inactive; negative | [10] inactive; negative | [11] inactive; negative | [12] inactive; negative

C=C(C)C(=O)OCCOC(=O)NCCC(C)CC(C)(C)CNC(=O)OCCOC(=O)C(=C)C (centres undefined)
inactive: [13] inactive; negative | Test System: AMES SALMONELLA TYPHIMURIUM, Strain/Indicator: TA97A, Metabolic Activation: RAT LIVER S-9, PHENOBARBITAL AND BETA-NAPHTHAFLAVONE, Method: STANDARD PLATE inactive; negative | [1] inactive; negative | Test System: AMES SALMONELLA TYPHIMURIUM, Strain/Indicator: TA98, Metabolic Activation: RAT LIVER S-9, PHENOBARBITAL AND BETA-NAPHTHAFLAVONE, Method: STANDARD PLATE inactive; negative | [3] inactive; negative | Test System: AMES SALMONELLA TYPHIMURIUM, Strain/Indicator: TA100, Metabolic Activation: RAT LIVER S-9, PHENOBARBITAL AND BETA-NAPHTHAFLAVONE, Method: STANDARD PLATE inactive; negative | [5] inactive; negative | Test System: AMES SALMONELLA TYPHIMURIUM, Strain/Indicator: TA102, Metabolic Activation: RAT LIVER S-9, PHENOBARBITAL AND BETA-NAPHTHAFLAVONE, Method: STANDARD PLATE inactive; negative | Test System: CHINESE HAMSTER V-79, Strain/Indicator: V79 (HPRT)/6-THIOGUANINE, Metabolic Activation: NONE inactive; negative

CCCCOCC=O
inactive: [13] inactive; negative | Test System: AMES SALMONELLA TYPHIMURIUM, Strain/Indicator: TA97A, Metabolic Activation: RAT, LIVER, S-9, AROCLOR 1254, Method: STANDARD PLATE inactive; negative | [1] inactive; negative | [2] inactive; negative | [3] inactive; negative | [4] inactive; negative | [5] inactive; negative | [6] inactive; negative | Test System: CHINESE HAMSTER OVARY, Strain/Indicator: CHO-AS52/6-THIOGUANINE, Metabolic Activation: NONE inactive; negative
active: Test System: CHINESE HAMSTER V-79, Strain/Indicator: V-79 (HPRT)/6-THIOGUANINE, Metabolic Activation: NONE active; positive

O=C1CN=C(c2ccccc2)c2cc([N+](=O)[O-])ccc2N1
inactive: [1] inactive; negative | [2] inactive; negative | [3] inactive; negative | [4] inactive; negative | [5] inactive; negative | [6] inactive; negative | [7] inactive; negative | [8] inactive; negative | Test System: AMES SALMONELLA TYPHIMURIUM, Strain/Indicator: TA1537, Metabolic Activation: NONE, Method: STANDARD PLATE inactive; negative | Test System: AMES SALMONELLA TYPHIMURIUM, Strain/Indicator: TA1537, Metabolic Activation: RAT, LIVER, S-9, AROCLOR 1254, Method: STANDARD PLATE inactive; negative | Test System: E. COLI, Strain/Indicator: WP2 UVRA, Metabolic Activation: NONE, Method: STANDARD PLATE inactive; negative | Test System: E. COLI, Strain/Indicator: WP2 UVRA, Metabolic Activation: RAT, LIVER, S-9, AROCLOR 1254, Method: STANDARD PLATE inactive; negative

COc1cc2c3c(c1OC)-c1cc4c(cc1C[C@@H]3N(C)CC2)OCO4
active: Test System: AMES SALMONELLA TYPHIMURIUM, Strain/Indicator: TA98, Metabolic Activation: RAT, LIVER, S-9, PHENOBARBITAL AND BETA-NAPHTHOFLAVONE, Method: PREINCUBATION active; positive | Test System: AMES SALMONELLA TYPHIMURIUM, Strain/Indicator: TA100, Metabolic Activation: RAT, LIVER, S-9, PHENOBARBITAL AND BETA-NAPHTHOFLAVONE, Method: PREINCUBATION active; positive

COc1c(C)c2c(c(O)c1C/C=C(\C)CCC(=O)O)C(=O)OC2
inactive: Test System: AMES SALMONELLA TYPHIMURIUM, Strain/Indicator: TA98, Metabolic Activation: RAT, LIVER, MICROSOMES, PHENOBARBITAL, Method: STANDARD PLATE inactive; negative | Test System: AMES SALMONELLA TYPHIMURIUM, Strain/Indicator: TA100, Metabolic Activation: RAT, LIVER, MICROSOMES, PHENOBARBITAL, Method: STANDARD PLATE inactive; negative

COC(=O)c1cc(Cc2ccc(N)c(C(=O)OC)c2)ccc1N
active: [10] active; positive | [12] active; positive
inactive: [9] inactive; negative | [11] inactive; negative
